Assay results: article PMC12692795, “Design and Synthesis of Structurally Modified Analogs of 24Z-Isomasticadienonic Acid with Enhanced Anti-Proliferative Activity” (Molecules, 2025)
Like-named read-outs stand apart in the source and are kept apart here.

Experiments:
[1] = system: HCT-116 (colorectal carcinoma); assay: Antitumoral assay (MTS, 72 h), HCT-116; conditions: Homo sapiens, HCT-116, 72 h, read-out: Cytotoxicity IC50, HCT-116
Protocol: (§1) Human cancer cell lines used in this study included Capan-1, HCT-116, NCI-H460, LN-229, HL-60, K-562, and Z-138, all obtained from the American Type Culture Collection (ATCC). The DND-41 cell line was sourced from the Deutsche Sammlung von Mikroorganismen und Zellkulturen (DSMZ). All cell lines were cultured in media obtained from Gibco Life Technologies, supplemented with 10% fetal bovine serum (HyClone, Logan, UT, USA). Adherent cell lines were seeded in 384-well tissue culture plates at the following densities: Capan-1 at 500 cells/well, and HCT-116, NCI-H460, and LN-229 at 1500 cells/well. After overnight incubation to allow cell attachment, cells were treated with a seven-point serial dilution of test compounds, ranging from 100 µM to 0.006 µM. Suspension cell lines were seeded as follows: HL-60, K-562, and Z-138 at 2500 cells/well, and DND-41 at 5500 cells/well, using the same compound concentration range. All treatments were performed in 384-well plates under identical conditions. Following 72 h of compound exposure, cell viability was assessed using the CellTiter 96® AQueous One Solution Cell Proliferation Assay (MTS, Promega, Leiden, The Netherlands), following the manufacturer’s protocol. The final assay mixture contained 333 µg/mL MTS and 25 µM phenazine methosulfate (PMS). Absorbance was measured at 490 nm using a SpectraMax Plus 384 microplate reader (Molecular Devices, San Jose, CA, USA). Optical density values were used to calculate the half-maximal inhibitory concentration (IC50) for each compound. All compounds were tested in a minimum of two independent biological replicates to ensure reproducibility.

[2] = system: Z-138 (non-Hodgkin's lymphoma); assay: Antitumoral assay (MTS, 72 h), Z-138; conditions: Homo sapiens, Z-138, 72 h, read-out: Cytotoxicity IC50, Z138
Protocol: (§2) Human cancer cell lines used in this study included Capan-1, HCT-116, NCI-H460, LN-229, HL-60, K-562, and Z-138, all obtained from the American Type Culture Collection (ATCC). The DND-41 cell line was sourced from the Deutsche Sammlung von Mikroorganismen und Zellkulturen (DSMZ). All cell lines were cultured in media obtained from Gibco Life Technologies, supplemented with 10% fetal bovine serum (HyClone, Logan, UT, USA). […] After overnight incubation to allow cell attachment, cells were treated with a seven-point serial dilution of test compounds, ranging from 100 µM to 0.006 µM. Suspension cell lines were seeded as follows: HL-60, K-562, and Z-138 at 2500 cells/well, and DND-41 at 5500 cells/well, using the same compound concentration range. All treatments were performed in 384-well plates under identical conditions. Following 72 h of compound exposure, cell viability was assessed using the CellTiter 96® AQueous One Solution Cell Proliferation Assay (MTS, Promega, Leiden, The Netherlands), following the manufacturer’s protocol. The final assay mixture contained 333 µg/mL MTS and 25 µM phenazine methosulfate (PMS). Absorbance was measured at 490 nm using a SpectraMax Plus 384 microplate reader (Molecular Devices, San Jose, CA, USA). Optical density values were used to calculate the half-maximal inhibitory concentration (IC50) for each compound. All compounds were tested in a minimum of two independent biological replicates to ensure reproducibility.

[3] = system: K-562 (chronic myeloid leukemia); assay: Antitumoral assay (MTS, 72 h), K-562; conditions: Homo sapiens, K562, 72 h, read-out: Cytotoxicity IC50, K562
Protocol: as §2

[4] = system: DND-41 (acute lymphoblastic leukemia); assay: Antitumoral assay (MTS, 72 h), DND-41; conditions: Homo sapiens, DND41, 72 h, read-out: Cytotoxicity IC50, DND-41
Protocol: as §2

[5] = system: Capan-1 (pancreatic adenocarcinoma); assay: Antitumoral assay (MTS, 72 h), Capan-1; conditions: Homo sapiens, CAPAN-1, 72 h, read-out: Cytotoxicity IC50, Capan-1
Protocol: as §1

[6] = system: NCI-H460 (lung carcinoma); assay: Antitumoral assay (MTS, 72 h), NCI-H460; conditions: Homo sapiens, NCI-H460, 72 h, read-out: Cytotoxicity IC50, NCl-H460
Protocol: as §1

LN-229 (glioblastoma) = assay: Antitumoral assay (MTS, 72 h), LN-229; conditions: Homo sapiens, LN-229, 72 h, read-out: Cytotoxicity IC50, LN229
Protocol: as §1

[7] = system: HL-60 (acute myeloid leukemia); assay: Antitumoral assay (MTS, 72 h), HL-60; conditions: Homo sapiens, HL-60, 72 h, read-out: Cytotoxicity IC50, HL-60
Protocol: as §2

[8] = system: panel of human cancer cell lines (Capan-1, HCT-116, LN-229, NCI-H460, DND-41, HL-60, K-562, Z-138)
Protocol: as §1

[9] = system: panel of human cancer cell lines (Capan-1, HCT-116, LN-229, NCI-H460, DND-41, HL-60, K-562, Z-138); assay: Antitumoral evaluation across the panel of solid and hematological cancer cell lines; conditions: 8 cancer cell lines, 72 h, MTS
Protocol: as §1

[10] = system: peripheral blood mononuclear cells (PBMCs); assay: Cell viability of PBMCs (MTS, 72 h); format: cell-based, Human; conditions: 72 h exposure, duplicate
Protocol: A buffy coat preparation sourced from a healthy donor was acquired from the Blood Transfusion Center in Leuven, Belgium. Peripheral blood mononuclear cells (PBMCs) were separated using density gradient centrifugation over Lymphoprep (density: 1.077 g/mL) from Nycomed. These cells were then cultured in cell culture medium (RPMI, Gibco, Waltham, MA, USA) supplemented with 10% FBS. The PBMCs were seeded at a density of 28,000 cells per well in 384-well tissue culture plates containing the test compounds at concentrations ranging from 50 µM to 3.2 nM (for compounds 3–11 and IMNA) and from 10 µM to 0.6 nM (for etoposide). Following a 72 h incubation period, cell viability was assessed using the MTS cell viability assay. Each compound was evaluated in duplicate.

| Compound | IC50 [1] | IC50 [2] | IC50 [3] | IC50 [4] | IC50 [5] | IC50 [6] | IC50 (LN-229 (glioblastoma)) | IC50 [7] | Cytotoxic / antiproliferative profile across the cancer cell line panel (in words) [8] | Cytotoxic / antiproliferative profile across the cancer cell line panel (in words) [9] | Toxicity to normal PBMCs ([10]; 10 µM) | Effect on viability of normal PBMCs ([10]; 50 µM) |
| --- | --- | --- | --- | --- | --- | --- | --- | --- | --- | --- | --- | --- |
| C/C(=C/CC[C@H](C)[C@@H]1CC[C@]2(C)C3=C(CC[C@@]12C)[C@@]1(C)CC(Br)C(=O)C(C)(C)C1CC3)C(=O)O (mixture of isomers) [Compound 4, 2-Bromo-3-oxotirucalla-8,24Z-dien-26-oic Acid] | 22 ± 0.8 µM | > 50 µM | > 50 µM | 20.5 ± 3.9 µM | 9.4 ± 1.5 µM | 25.1 ± 1.9 µM | 28.5 ± 5.3 µM | 14.7 ± 3.3 µM | intermediate activity across multiple cell lines | – | – | – |
| C/C(=C/CC[C@H](C)[C@@H]1CC[C@]2(C)C3=C(CC[C@@]12C)[C@@]1(C)CC(SC#N)C(=O)C(C)(C)C1CC3)C(=O)O (mixture of isomers) [Compound 6, 2-Thiocyanate-3-oxotirucalla-8,24Z-dien-26-oic Acid] | 24.3 ± 1.4 µM | 17.9 ± 0.4 µM | 35 ± 3.9 µM | 18.5 ± 0.7 µM | 7.4 ± 1 µM | 21.3 ± 2.3 µM | 23.3 ± 2.9 µM | 15 ± 1.2 µM | broader antiproliferative activity | – | – | – |
| C/C(=C/CC[C@H](C)[C@@H]1CC[C@]2(C)C3=C(CC[C@@]12C)[C@@]1(C)Cc2cnoc2C(C)(C)[C@@H]1CC3)C(=O)O [Compound 3, (S,Z)-2-Methyl-6-((1S,3aS,5aR,10aS,12aS)-3a,6,6,10a,12a-pentamethyl-2,3,3a,4,5,5a,6,10,10a,11,12,12a-dodecahydro-1H-cyclopenta[7,8]phenanthro[3,2-d]isoxazol-1-yl)hept-2-enoic Acid] | > 50 µM | > 50 µM | > 50 µM | > 50 µM | 6.7 ± 0.4 µM | > 50 µM | > 50 µM | > 50 µM | selective cytotoxicity toward Capan-1 | – | – | – |
| C/C(=C/CC[C@H](C)[C@@H]1CC[C@]2(C)C3=C(CC[C@@]12C)[C@@]1(C)Cc2sc(N)nc2C(C)(C)[C@@H]1CC3)C(=O)O [Compound 5, (S,Z)-6-((1S,3aS,5aR,10aS,12aS)-8-Amino-3a,6,6,10a,12a-pentamethyl-2,3,3a,4,5,5a,6,10,10a,11,12,12a-dodecahydro-1H-cyclopenta[7,8]phenanthro[2,3-d]thiazol-1-yl)-2-methylhept-2-enoic Acid] | 28.2 ± 1.9 µM | 25 ± 1.4 µM | > 50 µM | 19 ± 2 µM | 23.5 ± 2.4 µM | 24.5 ± 7.2 µM | 27.9 ± 2.9 µM | 19.5 ± 3.2 µM | intermediate activity across multiple cell lines | – | – | – |
| C/C(=C/CC[C@H](C)[C@@H]1CC[C@]2(C)C3=C(CC[C@@]12C)[C@@]1(C)Cc2sc(N4CCOCC4)nc2C(C)(C)[C@@H]1CC3)C(=O)O [Compound 7, (S,Z)-2-Methyl-6-((1S,3aS,5aR,10aS,12aS)-3a,6,6,10a,12a-pentamethyl-8-morpholino-2,3,3a,4,5,5a,6,10,10a,11,12,12a-dodecahydro-1H-cyclopenta[7,8]phenanthro[2,3-d]thiazol-1-yl)hept-2-enoic Acid] | > 50 µM | > 50 µM | > 50 µM | > 50 µM | 26 ± 0.4 µM | > 50 µM | > 50 µM | > 50 µM | selective cytotoxicity toward Capan-1 | – | – | – |
| C/C(=C/CC[C@H](C)[C@@H]1CC[C@]2(C)C3=C(CC[C@@]12C)[C@]1(C)C(CC3)C(C)(C)C(=O)O[C@@H]1O)C(=O)O (stereo partly drawn) [Compound 9, 1α-hydroxy-3-oxa-nor-tirucalla-8,24Z-dien-26-oic acid] | > 50 µM | > 50 µM | > 50 µM | > 50 µM | 39.4 ± 1.5 µM | > 50 µM | > 50 µM | > 50 µM | – | selective cytotoxicity toward Capan-1 | – | – |
| C/C(=C/CC[C@H](C)[C@@H]1CC[C@]2(C)C3=C(CC[C@@]12C)[C@@]1(C)CC(=O)C(C)(C)C1CC3)C(=O)O (some centres unmarked) [Compound 11, 3-One-1(2→3)-abeotirucalla-8,24Z-dien-26-oic Acid] | > 50 µM | > 50 µM | > 50 µM | 49.3 ± 0.8 µM | 24.6 ± 2.1 µM | > 50 µM | > 50 µM | 29.6 ± 8.9 µM | – | more limited and restricted cytotoxic profile | – | – |
| COc1cc([C@@H]2c3cc4c(cc3[C@@H](O[C@@H]3O[C@@H]5CO[C@@H](C)O[C@H]5[C@H](O)[C@H]3O)[C@H]3COC(=O)[C@H]23)OCO4)cc(OC)c1O [Etoposide, reference compound] | 1.09 ± 0.19 µM | 0.08 ± 0.007 µM | 4.47 ± 0.11 µM | 0.08 ± 0.03 µM | 0.24 ± 0.01 µM | 2.36 ± 0.7 µM | 4.8 ± 0.87 µM | 0.3 ± 0.12 µM | – | potent antiproliferative activity against all cancer cell lines | did not display toxicity | – |
| C/C(=C/CC[C@H](C)[C@@H]1CC[C@]2(C)C3=C(CC[C@@]12C)[C@@]1(C)CCC(=O)C(C)(C)C1CC3)C(=O)O (some centres unmarked) [IMNA, 24Z-isomasticadienonic acid] | 42.3 ± 2.3 µM | 32.7 ± 3.2 µM | > 50 µM | 34.2 ± 2.5 µM | 26.5 ± 1.6 µM | > 50 µM | > 50 µM | 21.7 ± 3.1 µM | – | intermediate activity across multiple cell lines | – | none of the analogues (compounds 3–11 and IMNA) decreased the viability |
